Reference: ChEMBL document CHEMBL3885881, “DrugMatrix”

Species on record: Rattus norvegicus
Experiment: DrugMatrix - Regimen: Daily Repeat
Assay type: toxicity, organism-based, Sprague-Dawley
Set-up: regimen Daily Repeat, gender Male, age 6-8 weeks
Settings: in vivo, po, route oral GAVAGE, vehicle .5 % CMC; for ABSOLUTE BASOPHIL / ABSOLUTE EOSINOPHIL / ABSOLUTE LYMPHOCYTE / ABSOLUTE MONOCYTE / ABSOLUTE SEGMENTED NEUTROPHIL / BASOPHIL / EOSINOPHIL / ERYTHROCYTE COUNT / HEMATOCRIT / HEMOGLOBIN / LEUKOCYTE COUNT / LYMPHOCYTE / MEAN CORPUSCULAR HEMOGLOBIN / MEAN CORPUSCULAR HEMOGLOBIN CONCENTRATION / MEAN CORPUSCULAR VOLUME / MONOCYTE / NEUTROPHIL / NUCLEATED RED BLOOD CELLS / PLATELET COUNT: tissue Blood; for ALANINE AMINOTRANSFERASE / ALBUMIN / ALKALINE PHOSPHATASE / ASPARTATE AMINOTRANSFERASE / BLOOD UREA NITROGEN / CARBON DIOXIDE / CHLORIDE / CHOLESTEROL / CREATINE PHOSPHOKINASE / CREATININE / GLUCOSE / LACTATE DEHYDROGENASE / LIPASE / PHOSPHORUS / POTASSIUM / SODIUM / TOTAL BILIRUBIN / TOTAL PROTEIN / URIC ACID: tissue Plasma
[1] = 16 mg/kg, 120 h, dose level Low, time 5 day
[2] = 94 mg/kg, 72 h, dose level High, time 3 day
[3] = 94 mg/kg, 120 h, dose level High, time 5 day

CCOC(=O)OC(C)OC1=C(C(=O)Nc2ccccn2)N(C)S(=O)(=O)c2ccccc21 (centres undefined) [AMPIROXICAM]
ABSOLUTE BASOPHIL [1]: 0 CELLS/uL | ABSOLUTE EOSINOPHIL [1]: 0 CELLS/uL | ABSOLUTE LYMPHOCYTE [1]: 8819 CELLS/uL | ABSOLUTE MONOCYTE [1]: 212 CELLS/uL | ABSOLUTE SEGMENTED NEUTROPHIL [1]: 1469 CELLS/uL | BASOPHIL [1]: 0% | EOSINOPHIL [1]: 0% | ERYTHROCYTE COUNT [1]: 5.59 x10E6/uL | HEMATOCRIT [1]: 33.9% | HEMOGLOBIN [1]: 12.8 G/DL | LEUKOCYTE COUNT [1]: 10.5 x10E3/uL | LYMPHOCYTE [1]: 84% | MEAN CORPUSCULAR HEMOGLOBIN [1]: 22.9 pg | MEAN CORPUSCULAR HEMOGLOBIN CONCENTRATION [1]: 37.77 G/DL | MEAN CORPUSCULAR VOLUME [1]: 60.67 fL | MONOCYTE [1]: 2.33% | NEUTROPHIL [1]: 13.67% | NUCLEATED RED BLOOD CELLS [1]: 0 /100WBC | PLATELET COUNT [1]: 1100 x10E3/uL | ALANINE AMINOTRANSFERASE [1]: 50.33 u/L | ALBUMIN [1]: 4.2 G/DL | ALKALINE PHOSPHATASE [1]: 430.67 u/L | ASPARTATE AMINOTRANSFERASE [1]: 70.67 u/L | BLOOD UREA NITROGEN [1]: 13.67 mg/dL | CARBON DIOXIDE [1]: 26 mmol/L | CHLORIDE [1]: 101.67 MEQ/L | CHOLESTEROL [1]: 67.67 mg/dL | CREATINE PHOSPHOKINASE [1]: 214.67 u/L | CREATININE [1]: 0.26 mg/dL | GLUCOSE [1]: 161.33 mg/dL | LACTATE DEHYDROGENASE [1]: 71.67 u/L | LIPASE [1]: 8.67 u/L | PHOSPHORUS [1]: 11.93 mg/dL | POTASSIUM [1]: 6.36 MEQ/L | SODIUM [1]: 144.83 MEQ/L | TOTAL BILIRUBIN [1]: 0.17 mg/dL | TOTAL PROTEIN [1]: 6.1 G/DL | URIC ACID [1]: 1.73 mg/dL | ABSOLUTE BASOPHIL [2]: 0 CELLS/uL | ABSOLUTE EOSINOPHIL [2]: 73 CELLS/uL | ABSOLUTE LYMPHOCYTE [2]: 14276.67 CELLS/uL | ABSOLUTE MONOCYTE [2]: 831.33 CELLS/uL | ABSOLUTE SEGMENTED NEUTROPHIL [2]: 1685.67 CELLS/uL | BASOPHIL [2]: 0% | EOSINOPHIL [2]: 0.33% | ERYTHROCYTE COUNT [2]: 4.7 x10E6/uL | HEMATOCRIT [2]: 28.03% | HEMOGLOBIN [2]: 11.03 G/DL | LEUKOCYTE COUNT [2]: 16.87 x10E3/uL | LYMPHOCYTE [2]: 85.33% | MEAN CORPUSCULAR HEMOGLOBIN [2]: 23.5 pg | MEAN CORPUSCULAR HEMOGLOBIN CONCENTRATION [2]: 39.33 G/DL | MEAN CORPUSCULAR VOLUME [2]: 59.67 fL | MONOCYTE [2]: 5% | NEUTROPHIL [2]: 9.33% | NUCLEATED RED BLOOD CELLS [2]: 0 /100WBC | PLATELET COUNT [2]: 907 x10E3/uL | ALANINE AMINOTRANSFERASE [2]: 30 u/L | ALBUMIN [2]: 2.33 G/DL | ALKALINE PHOSPHATASE [2]: 163.67 u/L | ASPARTATE AMINOTRANSFERASE [2]: 53 u/L | BLOOD UREA NITROGEN [2]: 10 mg/dL | CARBON DIOXIDE [2]: 27.67 mmol/L | CHLORIDE [2]: 103.67 MEQ/L | CHOLESTEROL [2]: 107.67 mg/dL | CREATINE PHOSPHOKINASE [2]: 224.33 u/L | CREATININE [2]: 0.21 mg/dL | GLUCOSE [2]: 142.33 mg/dL | LACTATE DEHYDROGENASE [2]: 128 u/L | LIPASE [2]: 11.33 u/L | PHOSPHORUS [2]: 11.57 mg/dL | POTASSIUM [2]: 6.23 MEQ/L | SODIUM [2]: 144.1 MEQ/L | TOTAL BILIRUBIN [2]: 0.13 mg/dL | TOTAL PROTEIN [2]: 4.43 G/DL | URIC ACID [2]: 1.57 mg/dL | ABSOLUTE BASOPHIL [3]: 0 CELLS/uL | ABSOLUTE EOSINOPHIL [3]: 0 CELLS/uL | ABSOLUTE LYMPHOCYTE [3]: 17904 CELLS/uL | ABSOLUTE MONOCYTE [3]: 540 CELLS/uL | ABSOLUTE SEGMENTED NEUTROPHIL [3]: 3956 CELLS/uL | BASOPHIL [3]: 0% | EOSINOPHIL [3]: 0% | ERYTHROCYTE COUNT [3]: 3.63 x10E6/uL | HEMATOCRIT [3]: 21.55% | HEMOGLOBIN [3]: 8.6 G/DL | LEUKOCYTE COUNT [3]: 22.4 x10E3/uL | LYMPHOCYTE [3]: 81% | MEAN CORPUSCULAR HEMOGLOBIN [3]: 23.8 pg | MEAN CORPUSCULAR HEMOGLOBIN CONCENTRATION [3]: 40.05 G/DL | MEAN CORPUSCULAR VOLUME [3]: 59.25 fL | MONOCYTE [3]: 2.5% | NEUTROPHIL [3]: 16.5% | NUCLEATED RED BLOOD CELLS [3]: 2.5 /100WBC | PLATELET COUNT [3]: 1838 x10E3/uL | ALANINE AMINOTRANSFERASE [3]: 30 u/L | ALBUMIN [3]: 2.85 G/DL | ALKALINE PHOSPHATASE [3]: 259 u/L | ASPARTATE AMINOTRANSFERASE [3]: 60.5 u/L | BLOOD UREA NITROGEN [3]: 13 mg/dL | CARBON DIOXIDE [3]: 23.5 mmol/L | CHLORIDE [3]: 104 MEQ/L | CHOLESTEROL [3]: 67 mg/dL | CREATINE PHOSPHOKINASE [3]: 290 u/L | CREATININE [3]: 0.21 mg/dL | GLUCOSE [3]: 136.5 mg/dL | LACTATE DEHYDROGENASE [3]: 87 u/L | LIPASE [3]: 9.5 u/L | PHOSPHORUS [3]: 11.1 mg/dL | POTASSIUM [3]: 6.99 MEQ/L | SODIUM [3]: 141.6 MEQ/L | TOTAL BILIRUBIN [3]: 0.1 mg/dL | TOTAL PROTEIN [3]: 4.95 G/DL | URIC ACID [3]: 1.75 mg/dL
